Source: patent EP0363856A1, “Derivative of coumarin, process for its preparation and its use” (HOECHST AKTIENGESELLSCHAFT, priority 1988, dated 1990)

Target: T1, Angereicherte γ-Glutamyl-Transpeptidasen (Bacillus subtilis subsp. natto, UniProt P63186)
T1 construct: Angereicherte γ-Glutamyl-Transpeptidasen der in Beispiel 3 genannten Mikroorganismen; endogenous in cells; host or cells: Bacillus subtilis "natto" IFO 3025, enzyme enriched from the culture
Assay: Incubation of enriched enzyme with cephalosporin substrates (hydrolysis to D-α-Aminoadipinsäure and nucleus)
Format: biochemical
Settings: enriched enzyme from Bacillus subtilis; hydrolysis to D-α-Aminoadipinsäure and Desacetyl-7ACA or 7ACA
Excerpt: Angereicherte γ-Glutamyl-Transpeptidasen der in Beispiel 3 genannten Mikroorganismen wurden mit Desacetyl-Cephalosporin C inkubiert. Nur das Enzym aus Bacillus subtilis, welches auch AAA-AMC spaltet, kann Desacetyl-Cephalosporin C und Cephalosporin C zu D-α-Aminoadipinsäure und Desacetyl-7ACA (18 % Umsetzung) bzw. 7ACA (3 % Umsetzung) hydrolysieren.

T1 sequence (P63186 36-587): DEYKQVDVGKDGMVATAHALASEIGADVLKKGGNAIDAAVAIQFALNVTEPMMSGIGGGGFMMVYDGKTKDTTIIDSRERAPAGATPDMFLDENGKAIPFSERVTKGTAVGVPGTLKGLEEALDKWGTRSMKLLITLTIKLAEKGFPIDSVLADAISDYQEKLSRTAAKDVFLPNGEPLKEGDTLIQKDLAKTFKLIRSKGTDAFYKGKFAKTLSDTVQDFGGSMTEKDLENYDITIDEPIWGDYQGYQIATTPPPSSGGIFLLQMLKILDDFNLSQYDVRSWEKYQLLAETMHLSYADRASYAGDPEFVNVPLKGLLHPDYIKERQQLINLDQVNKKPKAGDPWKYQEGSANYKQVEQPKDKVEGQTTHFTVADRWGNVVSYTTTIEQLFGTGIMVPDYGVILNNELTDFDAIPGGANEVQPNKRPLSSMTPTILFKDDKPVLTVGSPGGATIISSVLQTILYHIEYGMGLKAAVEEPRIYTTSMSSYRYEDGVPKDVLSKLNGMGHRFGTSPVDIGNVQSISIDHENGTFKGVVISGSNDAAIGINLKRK

SMILES: N[C@H](CCCC(=O)N[C@@H]1C(=O)N2C(C(=O)O)=C(CO)CS[C@H]12)C(=O)O [Desacetyl-Cephalosporin C]
- Umsetzung: 18%

SMILES: CC(=O)OCC1=C(C(=O)O)N2C(=O)[C@@H](NC(=O)CCC[C@@H](N)C(=O)O)[C@H]2SC1 [Cephalosporin C]
- Umsetzung: 3%
